Tests used:
cIAP-1 = molecular target: T1, cIAP-1 (Homo sapiens, UniProt Q13490); assay: cIAP degradation assay (GFP-cIAP-1); format: cell-based; conditions: for DC50: A375Gc1 cells, 2 h treatment, 50% of GFP signal inhibited (FACS), read-out: GFP-cIAP-1 IC50; for IC50 Ratio cIAP-2/cIAP-1: ratio of GFP-cIAP-2 to GFP-cIAP-1 degradation IC50
T1 construct: expressed in transfected cells; host or cells: A375 (A375Gc1)
Description: (§1) Briefly, A375 cell lines expressing GFP-tagged cIAP-1 and cIAP-2 were generated by transfecting HA2xEGFP-pcDNA3 vector containing either cIAP-1 (A375Gc1) or cIAP-2 (A375Gc2) coding region. 2×10^4 of A375Gc1 or A375Gc2 cells were grown in 96-well plate and treated with various concentrations of test compounds for 2 h. After incubation, cells were collected by trypsinization and suspended in 150 μl of DMEM-10% FBS. A total of 10^4 cells were analyzed using a FACScan (Becton Dickinson). GFP fluorescence was monitored by using an excitation filter at 488 nm and emission was measured with a 530 nm filter.

[1] = tested on: SKOV-3 ovarian tumor cell; assay: SKOV-3 cytotoxicity (MTT assay); format: cell-based; conditions: Homo sapiens, SK-OV-3 cells, 72 hrs, concentration giving 50% cell survival
Description: SKOV-3 ovarian tumor cell cytotoxicity data were generated substantially as follows. The MTT (3-(4,5-Dimethylthiazol-2-yl)-2,5-diphenyltetrazolium bromide) assay is an example of an assay that has been used for measuring cell growth as previously described (Hansen, M. B., Nielsen, S. E., and Berg, K. (1989) J. Immunol Methods 119, 203-210) and incorporated herein by reference in its entirety. Briefly, SK-OV-3 cells were seeded in 96-well plates in McCoy's medium containing 10% fetal bovine serum albumin (5,000 per well) and incubated overnight at 37° C. The next day, test compounds were added at various concentrations (0.003-10 μM) and the plates were incubated at 37° C. for an additional 72 hrs. This incubation time was optimal for measuring inhibitory effects of different analogs. Fifty microliters of 5 mg/mL MTT reagent to each well was added and the plates were incubated at 37° C. for 3 hours. At the end of the incubation period, 50 microliters of DMSO was added to each well to dissolve cells and the optical density (OD) of the wells was measured using a microplate reader (Victor^2 1420, Wallac, Finland) at 535 nm. Cell survival (CS) was calculated by the following equation: CS=(OD treated well/mean OD control wells)×100%
The CC50, defined as the drug concentration that results in 50% CS, was derived by calculating the point where the dose-response curve crosses the 50% CS point using GraphPad Prism.

cIAP-2 = molecular target: T2, cIAP-2 (Homo sapiens, UniProt Q13489); assay: cIAP degradation assay (GFP-cIAP-2); format: cell-based; conditions: A375Gc2 cells, 2 h treatment, 50% of GFP signal inhibited (FACS); read-out: GFP-cIAP-2 IC50
T2 construct: expressed in transfected cells; host or cells: A375 (A375Gc2)
T2 sequence (Q13489 whole entry, species assumed): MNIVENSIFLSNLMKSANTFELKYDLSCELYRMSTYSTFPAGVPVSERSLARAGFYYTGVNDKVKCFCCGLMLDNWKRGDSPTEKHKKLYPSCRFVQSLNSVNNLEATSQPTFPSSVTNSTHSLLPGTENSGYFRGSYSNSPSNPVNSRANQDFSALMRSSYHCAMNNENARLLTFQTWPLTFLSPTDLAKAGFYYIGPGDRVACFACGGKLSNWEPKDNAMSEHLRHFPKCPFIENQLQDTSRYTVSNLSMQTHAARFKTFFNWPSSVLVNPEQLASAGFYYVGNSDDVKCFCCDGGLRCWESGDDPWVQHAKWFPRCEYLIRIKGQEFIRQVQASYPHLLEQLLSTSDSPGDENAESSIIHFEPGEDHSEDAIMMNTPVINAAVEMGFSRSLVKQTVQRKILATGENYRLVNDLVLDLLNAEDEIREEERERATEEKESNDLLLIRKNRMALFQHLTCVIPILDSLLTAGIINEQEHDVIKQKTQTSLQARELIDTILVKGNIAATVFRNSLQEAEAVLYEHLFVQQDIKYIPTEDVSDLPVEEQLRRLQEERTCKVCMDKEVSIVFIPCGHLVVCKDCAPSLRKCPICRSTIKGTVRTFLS
Description: as §1, with “The concentration inducing degradation of cIAP-1 and cIAP-2 by 50% (IC50) for various compounds was determined by monitoring the disappearance of Green Fluorescent Protein (GFP)-signal in A375 cells. Briefly,” for “Briefly,”, “filter. IC50 is defined as the concentration of drug at which 50% of GFP signal was inhibited.” for “filter.”

XIAP = molecular target: T3, XIAP (Homo sapiens, UniProt P98170); assay: Caspase-3 derepression assay; format: biochemical; conditions: MDA-MB-231 hypotonic lysate activated with cytochrome c and dATP; zDEVD-R110(2) substrate
T3 construct: endogenous in cells; host or cells: MDA-MB-231 (ATCC), soluble hypotonic lysate
T3 sequence (P98170 whole entry): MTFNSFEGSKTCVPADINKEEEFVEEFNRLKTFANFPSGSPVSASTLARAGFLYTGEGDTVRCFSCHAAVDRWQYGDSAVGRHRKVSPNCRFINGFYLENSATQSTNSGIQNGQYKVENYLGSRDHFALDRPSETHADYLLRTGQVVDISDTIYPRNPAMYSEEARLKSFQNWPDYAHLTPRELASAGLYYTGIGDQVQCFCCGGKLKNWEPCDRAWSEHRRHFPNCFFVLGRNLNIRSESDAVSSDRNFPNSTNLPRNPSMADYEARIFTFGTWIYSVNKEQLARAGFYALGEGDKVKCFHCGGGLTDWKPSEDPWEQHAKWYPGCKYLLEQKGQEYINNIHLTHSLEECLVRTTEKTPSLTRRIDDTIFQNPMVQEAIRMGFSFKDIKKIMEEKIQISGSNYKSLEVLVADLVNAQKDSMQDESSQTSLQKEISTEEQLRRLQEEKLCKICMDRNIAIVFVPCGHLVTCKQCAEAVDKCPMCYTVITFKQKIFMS
Description: Cell pellet was washed one time by resuspending in 5 mL hypotonic lysis buffer (20 mM HEPES, pH7.5, 10 mM KCl, 1.5 mM MgCl2, 1.0 mM EDTA, 1.0 mM DTT) and recollected by centrifugation. Pellet was next resuspended in 1 volume of hypotonic lysis buffer supplemented with a complete protease inhibitor tablet (Roche) and allowed to swell on ice for 30 minutes. Cells were disrupted by approximately 50 passages through a 27 gauge needle. Lysis was monitored by light microscopy. Lysate was centrifuged at 12000×g for 10 minutes at 4° C. to remove membrane fraction, unlysed cells and debris. The soluble fraction was collected for protein concentration determination and subsequent assay analysis.
The hypotonic lysate (25 μg protein), 50 μg/mL cytochrome c and 10 mM dATP were combined in a microcentrifuge tube to a final volume of 9 μl in hypotonic lysis buffer followed by addition of test compound and incubated for 30 minutes at room temp. Following incubation 50 μl of hypotonic lysis buffer containing 5 μM of pro-fluorescent rhodamine-110(2) based caspase-3 substrate zDEVD-R110(2) was added and fluorescence intensity was monitored over time. Activation of the lysate by addition of cytochrome c and dATP results in apoptosome formation and subsequent activation of caspases-9 and -3.

[2] = format: in vivo; conditions: for Mortality: 3 mg/Kg, QDx4 i.v. bolus; for Bone marrow hypocellularity of the erythroid series (anatomic pathology) / Hypercellularity of the myeloid series (anatomic pathology) / Hypertrophy and hyperplasia of megakaryocytes (anatomic pathology) / Type 2 pneumocyte hypertrophy/hyperplasia in the lungs (anatomic pathology) / Clinical signs: 1 mg/kg/day
From the text: Body weight loss (BWL), mortality and additional toxicity data were generated substantially as follows. […] Body weights were taken on day 4 and are shown as percent change from day 1.

[3] = tested on: MDA-MB-231 human breast tumor cells; assay: MDA-MB-231 xenograft tumor growth delay; format: in vivo, female nude mice
Description: MDA-MB-231 xenograft data were generated substantially as follows. MDA-MB-231 human breast tumor cells were injected into the mammary fat pad of female nude mice and dosing initiated twelve days later at an average tumor volume of approximately 148 mm^3. No tumor burden was associated with this model based on lack of weight loss or animal morbidity in control groups. Mice were injected subcutaneously into the mammary fat pad with 1×10^7 cells suspended in 200 μl of a 1:1 HBSS: Matrigel solution; injected cells were within nine passages of the original lot. Pre-study tumor volumes were recorded beginning approximately one week prior to the estimated start date. When tumors reached approximately 150 mm^3 animals are matched by tumor volume into treatment and control groups and dosing initiated (Day 0); mice are tagged and followed individually throughout the experiment. Animals were dosed by weight (0.01 mL per gram; 10 ml/Kg).
Beginning on Day 0, animals were observed daily and weighed twice weekly using a digital scale (Ohaus SP601); data including individual and mean gram weights (Mean We±SD), mean percent weight change versus Day 0 (% vD0) and mean percent weight change versus prior measurement (% vD−x) were recorded for each group and plotted at study completion.
Beginning on Day 0, tumor dimensions were measured twice weekly by digital caliper (Fowler Ultra-Cal IV) and data including individual and mean estimated tumor volumes (Mean TV±SEM) recorded for each group; tumor volume was calculated using the formula: TV=width^2×length×0.52. Individual mice reaching the designated study endpoint (an estimated tumor volume of approximately 1 cm^3) were assigned a time to endpoint (TTE) value corresponding to that day; the tumor growth delay (TGD) study was concluded once all mice reach the study endpoint or sixty days following study initiation. At study completion, TGD and % TGD are calculated using the median TTE (MTTE) value for each treatment (T) group versus control (C) by the formulas: TGD(days)=T−C and % TGD=T−C/C×100, wherein T−C is the difference between MTTE-Treatment Group and MTTE-Control. Tumored animals not reaching the designated volume endpoint by study completion are considered long-term survivors (LTS) and assigned a TTE value corresponding to the final study day; tumor-free animals are not included in TGD calculations. A Log-rank test is used to determine statistically significant differences in overall survival experience between each treated group compared to control. Individual mice reporting a tumor volume ≤50% of the Day 0 measurement for two consecutive measurements over a seven day period were considered partial responders (PR). If the PR persisted until study completion, percent tumor regression (% TR) was determined using the formula: % TR=1−Tf/Ti×100; a mean value was calculated if multiple PR mice occurred in one group. Individual mice lacking palpable tumors (<4×4 mm^2 for two consecutive measurements over a seven day period) were classified as complete responders (CR); a CR that persisted until study completion was considered a tumor-free survivor (TFS); TFS animals are excluded from TGD calculations and statistical analysis. Statistical differences in MTTE values between control and treatment groups are compared using a Log Rank test.

T1 sequence (Q13490 whole entry, species assumed): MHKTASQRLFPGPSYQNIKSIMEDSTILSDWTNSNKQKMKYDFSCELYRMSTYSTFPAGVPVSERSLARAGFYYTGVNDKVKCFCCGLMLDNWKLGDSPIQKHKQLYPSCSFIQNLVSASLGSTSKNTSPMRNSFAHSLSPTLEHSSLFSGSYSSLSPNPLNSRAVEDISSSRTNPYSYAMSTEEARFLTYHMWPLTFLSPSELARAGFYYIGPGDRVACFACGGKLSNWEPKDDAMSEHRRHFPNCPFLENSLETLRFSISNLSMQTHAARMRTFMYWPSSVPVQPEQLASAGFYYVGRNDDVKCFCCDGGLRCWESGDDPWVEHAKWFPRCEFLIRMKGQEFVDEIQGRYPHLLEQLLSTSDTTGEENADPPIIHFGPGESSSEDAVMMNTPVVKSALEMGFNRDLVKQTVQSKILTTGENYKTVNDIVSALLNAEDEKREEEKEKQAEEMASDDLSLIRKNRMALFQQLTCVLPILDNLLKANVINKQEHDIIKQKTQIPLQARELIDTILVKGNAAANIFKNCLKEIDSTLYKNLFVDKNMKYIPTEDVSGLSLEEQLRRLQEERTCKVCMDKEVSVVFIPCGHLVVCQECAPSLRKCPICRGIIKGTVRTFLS

For CN[C@@H](C)C(=O)N[C@H](C(=O)N1C[C@@H](O)C[C@H]1Cc1c(-c2[nH]c3cc(F)ccc3c2C[C@@H]2C[C@H](O)CN2C(=O)[C@@H](NC(=O)[C@H](C)NC)C(C)C)[nH]c2cc(F)ccc12)C(C)C [Compound 2], the DC50 (cIAP-1) was 4 nM, the “IC50 Ratio cIAP-2/cIAP-1” value (cIAP-1) was 1.8 and the CC50 [1] was 0.5 nM. For the same compound, the DC50 (cIAP-2) was 7 nM and the IC50 (XIAP) was 13.4 nM.
In the case of CN[C@@H](C)C(=O)N[C@H](C(=O)N1C[C@@H](O)C[C@H]1Cc1c(-c2[nH]c3cc(F)ccc3c2C[C@@H]2C[C@H](O)CN2C(=O)[C@@H](NC(=O)[C@H](C)NC)[C@@H](C)O)[nH]c2cc(F)ccc12)[C@@H](C)O [Compound 3], the DC50 (cIAP-1) is reported as 328 nM, the “IC50 Ratio cIAP-2/cIAP-1” value (cIAP-1) is reported as 2.1 and the CC50 [1] is reported as 13 nM. The DC50 (cIAP-2) was 674 nM and the IC50 (XIAP) was 0.2 nM.
With CN[C@@H](C)C(=O)N[C@H](C(=O)N1C[C@@H](O)C[C@H]1Cc1c(-c2[nH]c3cc(F)ccc3c2C[C@@H]2C[C@H](O)CN2C(=O)[C@@H](NC(=O)[C@H](C)NC)[C@H](C)O)[nH]c2cc(F)ccc12)[C@H](C)O [Compound 4] the DC50 (cIAP-1) was 464 nM, the “IC50 Ratio cIAP-2/cIAP-1” value (cIAP-1) was 1.3 and the CC50 [1] was 2 nM. The DC50 (cIAP-2) was 604 nM, the Mortality ([2]; rat) was “caused the animals to die” and the “Bone marrow hypocellularity of the erythroid series (anatomic pathology)” value ([2]; rat, in vivo) was “marked to severe”. The “Hypercellularity of the myeloid series (anatomic pathology)” value ([2]; rat, in vivo) was “mild to moderate”, the “Hypertrophy and hyperplasia of megakaryocytes (anatomic pathology)” value ([2]; rat, in vivo) was “mild to moderate” and the “Type 2 pneumocyte hypertrophy/hyperplasia in the lungs (anatomic pathology)” value ([2]; rat, in vivo) was “mild to moderate”. For the same compound, the Clinical signs ([2]; rat, in vivo, iv) was “lethargy, increased/irregular respiration and increased heart rate” and the IC50 (XIAP) was 0.35 nM.
In the case of CN[C@@H](C)C(=O)N[C@H](C(=O)N1C[C@@H](O)C[C@H]1Cc1c(-c2[nH]c3cc(F)ccc3c2C[C@@H]2C[C@H](O)CN2C(=O)[C@@H](NC(=O)[C@H](C)NC)[C@@H](C)OC)[nH]c2cc(F)ccc12)[C@@H](C)OC [Compound 5], the DC50 (cIAP-1) is reported as 10 nM, the “IC50 Ratio cIAP-2/cIAP-1” value (cIAP-1) is reported as 3.7 and the CC50 [1] is reported as 0.13 nM. For the same compound, the DC50 (cIAP-2) was 37 nM, the Long-term survivors ([3]; 15 mg/Kg i.p., q3dx5) was 3/10 and the Partial tumor regression ([3]; 15 mg/Kg i.p., q3dx5) was “five”. For the same compound, the “T−C value (tumor growth delay)” value ([3]; 15 mg/Kg i.p., q3dx5) was 21 days, the “Weight loss compared to mice dosed with Compound 15 at 20 mg/Kg” value ([3]; nude mice, 15 mg/Kg i.p., q3dx5) was “greater” and the Mortality ([2]; rat) was “caused the animals to die”. The Additional clinical observations ([2]; rat, in vivo, 1 mg/kg) was “dehydration, ungroomed appearance, chromorhinorrhea, alopecia (head), and excessive scratching”, the “Bone marrow hypocellularity of the erythroid series (anatomic pathology)” value ([2]; rat, in vivo) was “marked to severe” and the “Hypercellularity of the myeloid series (anatomic pathology)” value ([2]; rat, in vivo) was “mild to moderate”. For the same compound, the “Hypertrophy and hyperplasia of megakaryocytes (anatomic pathology)” value ([2]; rat, in vivo) was “mild to moderate”, the “Type 2 pneumocyte hypertrophy/hyperplasia in the lungs (anatomic pathology)” value ([2]; rat, in vivo) was “mild to moderate” and the Clinical signs ([2]; rat, in vivo, iv) was “lethargy, increased/irregular respiration and increased heart rate”. The IC50 (XIAP) was 0.36 nM.
With CC[C@H](NC(=O)[C@H](C)NC)C(=O)N1C[C@@H](O)C[C@H]1Cc1c(-c2[nH]c3cc(F)ccc3c2C[C@@H]2C[C@H](O)CN2C(=O)[C@H](CC)NC(=O)[C@H](C)NC)[nH]c2cc(F)ccc12 [Compound 15, N-{1S-[2R-(6,6′-Difluoro-3′-{4S-hydroxy-1-[2S-(2S-methylamino-propionylamino)-butyryl]-pyrrolidin-2R-ylmethyl}-1H,1′H-[2,2′]biindolyl-3-ylmethyl)-4S-hydroxy-pyrrolidine-1-carbonyl]-propyl}-2S-methylamino-propionamide] the CC50 [1] was 0.14 nM, the DC50 (cIAP-2) was 174 nM and the Long-term survivors ([3]; 20 mg/Kg i.p., q3dx5) was 6/10. For the same compound, the Partial tumor regression ([3]; 20 mg/Kg i.p., q3dx5) was “three”, the “T−C value (tumor growth delay)” value ([3]; 20 mg/Kg i.p., q3dx5) was 22 days and the Long-term survivors ([3]; 40 mg/Kg i.p., q3dx5) was 9/10. The Partial tumor regression ([3]; 40 mg/Kg i.p., q3dx5) was “three”, the “T−C value (tumor growth delay)” value ([3]; 40 mg/Kg i.p., q3dx5) was 22 days and the Long-term survivors ([3]; 60 mg/Kg i.p., q3dx5) was 8/10. The Partial tumor regression ([3]; 60 mg/Kg i.p., q3dx5) was “seven”, the “T−C value (tumor growth delay)” value ([3]; 60 mg/Kg i.p., q3dx5) was 22 days and the Minimal effective dose ([3]; MDA-MB-231 xenograft model, subsequent studies) was “less than 1 mg/Kg”. The “Tolerability in the rat as compared to Compounds 4 and 5, dose per dose” value ([2]; Sprague-Dawley, in vivo, iv, 4 days) was “approximately 5 fold”.

Reference: patent US11351221B2, “SMAC mimetic” (Medivir AB, priority 2009, dated 2022)
